Data on one compound can be found in paper PMC4751497, “Characterization of SCO4439, a D-alanyl-D-alanine carboxypeptidase involved in spore cell wall maturation, resistance, and germination in Streptomyces coelicolor” (Scientific Reports, 2016).

pIC50: −log10 of the molar value.

The assay concerns the target T1, His6-SCO4439 (Streptomyces coelicolor, UniProt Q9KZY7).
T1 construct: whole SCO4439 gene with N-terminal His6 tag in pET11a (pBRB7), expressed in E. coli JM109 (DE3), HisTrap purified, tag kept; native protein 84 kDa; tag followed by VARED (from primer BRB7F)
Kind of assay: D-Ala release, D-amino acid oxidase-peroxidase coupled colorimetric assay. The assay is classed as biochemical.

T1 sequence (Q9KZY7 entry or part of it): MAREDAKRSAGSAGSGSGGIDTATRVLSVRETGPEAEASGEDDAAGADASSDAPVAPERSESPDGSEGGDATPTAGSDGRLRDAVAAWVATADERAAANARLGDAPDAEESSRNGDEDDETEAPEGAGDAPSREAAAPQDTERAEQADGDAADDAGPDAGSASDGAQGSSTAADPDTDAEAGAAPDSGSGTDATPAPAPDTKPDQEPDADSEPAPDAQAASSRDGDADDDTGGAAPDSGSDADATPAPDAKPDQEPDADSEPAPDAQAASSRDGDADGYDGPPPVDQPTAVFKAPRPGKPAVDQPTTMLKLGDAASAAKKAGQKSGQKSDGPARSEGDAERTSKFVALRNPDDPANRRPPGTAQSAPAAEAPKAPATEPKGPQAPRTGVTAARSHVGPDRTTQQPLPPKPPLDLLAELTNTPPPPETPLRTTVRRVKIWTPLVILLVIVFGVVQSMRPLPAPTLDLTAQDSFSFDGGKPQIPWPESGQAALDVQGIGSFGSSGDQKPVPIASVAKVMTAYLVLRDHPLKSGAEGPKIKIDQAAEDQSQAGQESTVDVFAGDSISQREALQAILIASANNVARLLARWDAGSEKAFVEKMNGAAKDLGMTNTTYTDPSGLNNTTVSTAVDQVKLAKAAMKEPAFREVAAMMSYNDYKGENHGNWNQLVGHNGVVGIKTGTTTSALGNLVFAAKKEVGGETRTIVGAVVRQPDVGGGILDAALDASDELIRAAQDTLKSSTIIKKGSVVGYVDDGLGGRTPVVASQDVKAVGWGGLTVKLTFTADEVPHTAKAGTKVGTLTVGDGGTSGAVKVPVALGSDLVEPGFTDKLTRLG

On to `CC1(C)S[C@@H]2[C@H](NC(=O)Cc3ccccc3)C(=O)N2[C@H]1C(=O)O` [penicillin G], for which the pIC50 is 3.00.

One may read the pIC50 as −log10 of the IC50, conventionally taken in molar units. A lower pIC50 goes with a large IC50.
